Measured values published in ChEMBL document CHEMBL4651402, “Screening of ~5500 FDA-approved drugs and clinical candidates for anti-SARS-CoV-2 activity” (2021).
Counter-ions that a name gives are not always drawn.

System: SARS-CoV-2
Test: microbe, parasite or virus in culture
Settings: Severe acute respiratory syndrome coronavirus 2, Vero C1008, 48 h

Row | Structure (SMILES) | IC50 | IC50 (read-out: pIC50 (converted))
1 | CCOC(=O)c1[nH]c2cc(OC)c(OC)cc2c1CCN1CCN(c2ccccc2)CC1 [ALPERTINE] | > 20 µM | > 20 µM
2 | CC1(C)C(C=C(Cl)Cl)C1C(=O)OC(C#N)c1cccc(Oc2ccccc2)c1 (stereo not drawn) [ALPHA-CYPERMETHRIN] | > 20 µM | > 20 µM
3 | O=C(O)CCC(=O)C(=O)O [ALPHA-KETOGLUTARIC ACID] | > 20 µM | > 20 µM
4 | CC[C@@H](O)C(C[C@@H](C)N(C)C)(c1ccccc1)c1ccccc1 [ALPHAMETHADOL] | > 20 µM | > 20 µM
5 | CCC(=O)OC1(c2ccccc2)CCN(C)CC1C (stereo not drawn) [ALPHAPRODINE] | > 20 µM | > 20 µM
6 | CCCN(CCC)C(=O)Cc1c(-c2ccc(Cl)cc2)nc2ccc(Cl)cn12 [ALPIDEM] | > 20 µM | > 20 µM
7 | Cc1nnc2n1-c1ccc(Cl)cc1C(c1ccccc1)=NC2 [ALPRAZOLAM] | > 20 µM | > 20 µM
8 | C=CCc1ccccc1OCC(O)CNC(C)C (stereo not drawn) [ALPRENOLOL] | > 20 µM | > 20 µM
9 | CCCCC[C@H](O)/C=C/[C@H]1[C@H](O)CC(=O)[C@@H]1CCCCCCC(=O)O [ALPROSTADIL] | > 20 µM | > 20 µM
10 | O=C(O)CN1C(=O)c2cccc3cccc(c23)C1=O [ALRESTATIN] | > 20 µM | > 20 µM
11 | O=C(c1ccc(F)cc1)C1CCN(CCn2c(=S)[nH]c3ccccc3c2=O)CC1 [ALTANSERIN] | > 20 µM | > 20 µM
12 | C=CCSCC1Nc2cc(Cl)c(S(N)(=O)=O)cc2S(=O)(=O)N1 (stereo not drawn) [ALTHIAZIDE] | > 20 µM | > 20 µM
13 | C#Cc1cncc([C@@H]2CCCN2C)c1 [ALTINICLINE] | > 20 µM | > 20 µM
14 | C=CC[C@]1(O)CC[C@H]2[C@@H]3CCC4=CC(=O)CCC4=C3C=C[C@@]21C [ALTRENOGEST] | > 20 µM | > 20 µM
15 | CN(C)c1nc(N(C)C)nc(N(C)C)n1 [ALTRETAMINE] | > 20 µM | > 20 µM
16 | CCN(CCCc1ccccc1)CCCc1ccccc1 [ALVERINE] | > 20 µM | > 20 µM
17 | Nc1ncnc(Nc2ccccc2)n1 [AMANOZINE] | > 20 µM | > 20 µM
18 | NC12CC3CC(CC(C3)C1)C2 [AMANTADINE] | > 20 µM | > 20 µM
19 | Nc1ccc(C(=O)N2CC3CC(CN(Cc4ccccc4)C3)C2)cc1 [AMBASILIDE] | > 20 µM | > 20 µM
20 | N=C(N)NN=C1C=CC(=NNC(N)=S)C=C1 [AMBAZONE] | > 20 µM | > 20 µM

Row | Structure (SMILES) | IC50 | IC50 (read-out: pIC50 (converted))
21 | COC(c1ccccc1)(c1ccccc1)[C@H](Oc1nc(C)cc(C)n1)C(=O)O [AMBRISENTAN] | > 20 µM | > 20 µM
22 | Nc1c(Br)cc(Br)cc1CN[C@H]1CC[C@H](O)CC1 [AMBROXOL] | > 20 µM | > 20 µM
23 | CCCCN(CCCC)C(C(N)=O)c1ccc(OC)cc1 (stereo not drawn) [AMBUCETAMIDE] | > 20 µM | > 20 µM
24 | CC[N+](C)(C)CCC(C(N)=O)(c1ccccc1)c1ccccc1 [AMBUTONIUM] | > 20 µM | > 20 µM
25 | CC(=O)OCC(=O)[C@@]12OC3(CCCC3)O[C@@H]1C[C@H]1[C@@H]3CCC4=CC(=O)C=C[C@]4(C)[C@@]3(F)[C@@H](O)C[C@@]12C [AMCINONIDE] | > 20 µM | > 20 µM
26 | CC(C)(C)C(=O)OCOC(=O)[C@@H]1N2C(=O)[C@@H](/N=C/N3CCCCCC3)[C@H]2SC1(C)C [AMDINOCILLIN PIVOXIL] | > 20 µM | > 20 µM
27 | CNCCCC1(C)C(=O)N(c2ccccc2)c2ccccc21 (stereo not drawn) [AMEDALIN] | > 20 µM | > 20 µM
28 | Nc1c(CC(=O)O)cccc1C(=O)c1ccccc1 [AMFENAC] | > 20 µM | > 20 µM
29 | CCn1cc(C(=O)O)c(=O)c2ccc(Cc3ccccc3)nc21 [AMFONELIC ACID] | > 20 µM | > 20 µM
30 | NC(=O)Nc1ccc(S(=O)(=O)c2ccc(N)cc2)cc1 [AMIDAPSONE] | > 20 µM | > 20 µM
31 | CNCC(O)c1cccc(NS(C)(=O)=O)c1 (stereo not drawn) [AMIDEPHRINE MESYLATE] | > 20 µM | > 20 µM
32 | Nc1ccncc1N [AMIFAMPRIDINE] | > 20 µM | > 20 µM
33 | CNn1cc(C(=O)O)c(=O)c2cc(F)c(N3CCN(C)CC3)cc21 [AMIFLOXACIN] | > 20 µM | > 20 µM
34 | N=C(N)NC(=O)c1nc(Cl)c(N)nc1N [AMILORIDE] | > 50.1 µM | > 50.1 µM
35 | Nc1c2ccccc2nc2ccccc12 [AMINACRINE] | > 20 µM | > 20 µM
36 | Nc1ccc(C(=O)O)cc1 [AMINOBENZOIC ACID] | > 20 µM | > 20 µM
37 | NCCCCCC(=O)O [AMINOCAPROIC ACID] | > 20 µM | > 20 µM
38 | CCC1(c2ccc(N)cc2)CCC(=O)NC1=O (stereo not drawn) [AMINOGLUTETHIMIDE] | > 20 µM | > 20 µM
39 | Nc1ccc(C(=O)NCC(=O)O)cc1 [AMINOHIPPURIC ACID] | > 20 µM | > 20 µM
